This passage reports IC50 results from patent publication US10000507B2, “Furo- and thieno-pyridine carboxamide compounds useful as pim kinase inhibitors” (Incyte Corporation, priority 2013, dated 2018).

Bounds are passed on as bounds.

What all share (assay type): biochemical
The target in experiment [1] is Pim-3 (Homo sapiens (Human), UniProt Q86V86). The experiment in a line: Pim-3 kinase assay. As to conditions: 1 mM ATP, biotin-labeled BAD peptide substrate; read-out: Pim3 IC50. The procedure, abridged:
(§1)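 Biotin-BAD peptide ([…]) phosphorylated with 1 mM ATP by 2.5 pM Pim-1 or 1.25 pM Pim-3, 1 h at 25 °C in Tris pH 7.5, MgCl2, DTT buffer. EDTA stop with anti-phospho-BAD (Ser112) antibody and AlphaScreen streptavidin donor/Protein-A acceptor beads; signal read after 1 h dark incubation.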

Experiment [2] deals with Pim-1 (Homo sapiens (Human), UniProt P11309). Put plainly: Pim-1 kinase assay. As to conditions: 1 mM ATP, biotin-labeled BAD peptide substrate; read-out: Pim1 IC50. The procedure, abridged: as §1
Experiment [3] addresses Pim-2 (Homo sapiens (Human), UniProt Q9P1W9). The experiment in a line: Pim-2 kinase assay. The settings on record: 1 mM ATP, fluorescein-labeled CREBtide peptide substrate; read-out: Pim2 IC50. The procedure, abridged: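 TR-FRET assay: 1 nM Pim-2 with 0.05 μM fluorescein-CREBtide and 1 mM ATP in Tris pH 7.5, 5 mM MgCl2, 5 mM DTT, 2 h at 25 °C. EDTA stop, then Tb-anti-pCREB Ser133 antibody for 30 min before reading.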

Pim-2, sequence (Q9P1W9 whole entry): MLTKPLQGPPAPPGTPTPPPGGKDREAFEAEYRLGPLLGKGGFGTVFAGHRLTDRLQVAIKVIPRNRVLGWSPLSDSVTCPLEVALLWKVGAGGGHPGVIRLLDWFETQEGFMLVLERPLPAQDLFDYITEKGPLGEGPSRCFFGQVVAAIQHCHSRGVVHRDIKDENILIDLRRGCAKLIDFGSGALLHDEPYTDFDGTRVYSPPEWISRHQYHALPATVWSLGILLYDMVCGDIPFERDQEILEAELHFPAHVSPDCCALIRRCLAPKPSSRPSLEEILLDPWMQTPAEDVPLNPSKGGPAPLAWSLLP
Pim-1, sequence (P11309 whole entry): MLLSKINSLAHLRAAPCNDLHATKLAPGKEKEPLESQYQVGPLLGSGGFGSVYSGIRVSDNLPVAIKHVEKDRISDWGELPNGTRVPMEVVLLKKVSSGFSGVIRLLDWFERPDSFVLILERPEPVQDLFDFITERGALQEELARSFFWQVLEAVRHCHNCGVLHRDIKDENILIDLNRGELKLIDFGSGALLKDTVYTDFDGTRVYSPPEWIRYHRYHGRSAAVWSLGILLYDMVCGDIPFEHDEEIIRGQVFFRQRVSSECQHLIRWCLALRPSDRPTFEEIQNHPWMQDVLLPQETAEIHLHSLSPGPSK

As to `Cn1ncc(NC(=O)c2c(N)sc3cccnc23)c1N1CCCC(N)CC1` (stereo not drawn) [Example 1, 2-Amino-N-[5-(4-aminoazepan-1-yl)-1-methyl-1H-pyrazol-4-yl]thieno[3,2-b]pyridine-3-carboxamide], the IC50 in experiment [1] was not above 10 nM; in experiment [2], not above 10 nM; in experiment [3] it was 100 to 1000 nM.

With `Nc1sc2cc(C3CCOCC3)cnc2c1C(=O)Nc1cnccc1N1CCC[C@H](N)C1` [Example 35, 2-Amino-N-{4-[(3S)-3-aminopiperidin-1-yl]pyridin-3-yl}-6-(tetrahydro-2H-pyran-4-yl)thieno[3,2-b]pyridine-3-carboxamide], the IC50 in experiment [1] was not above 10 nM; in experiment [2] it was not above 10 nM; in experiment [3], 10 to 100 nM.

Regarding `CCCc1cnc2c(C(=O)Nc3cnccc3N3CC[C@@H](F)[C@H](N)C3)c(N)oc2c1` [Example 80, 2-Amino-N-{4-[(3R,4R)-3-amino-4-fluoro-piperidin-1-yl]pyridin-3-yl}-6-propylfuro[3,2-b]pyridine-3-carboxamide], the IC50 in experiment [1] is not above 10 nM; in experiment [2], not above 10 nM; in experiment [3], 100 to 1000 nM.

For the molecule `Cn1ncc(NC(=O)c2c(N)sc3cc(-c4ccccc4)cnc23)c1N1CCCC(N)CC1` (stereo not drawn) [Example 25, 2-Amino-N-[5-(4-aminoazepan-1-yl)-1-methyl-1H-pyrazol-4-yl]-6-phenylthieno[3,2-b]pyridine-3-carboxamide], the figures for the IC50 in experiment [1], in experiment [2] and in experiment [3] were not above 10 nM, not above 10 nM and 10 to 100 nM, respectively.

`CC(C)c1cnc2c(C(=O)Nc3cnccc3N3C[C@@H](N)[C@@H](n4ccnn4)[C@@H](C)C3)c(N)oc2c1` [Example 102, 2-Amino-N-{4-[(3R,4S,5S)-3-amino-5-methyl-4-(1H-1,2,3-triazol-1-yl)piperidin-1-yl]pyridin-3-yl}-6-isopropylfuro[3,2-b]pyridine-3-carboxamide]: the IC50 was not above 10 nM in experiment [1], not above 10 nM in experiment [2] and 10 to 100 nM in experiment [3].

As to `Cc1cncc(NC(=O)c2c(N)oc3cccnc23)c1N1C[C@@H](N)[C@H](O)[C@@H](C)C1` [Example 76, 2-Amino-N-{5-methyl-4-[(3R,4R,5S)-3-amino-4-hydroxy-5-methylpiperidin-1-yl]pyridin-3-yl}-furo[3,2-b]pyridine-3-carboxamide], the IC50 is not above 10 nM in experiment [1], not above 10 nM in experiment [2] and 100 to 1000 nM in experiment [3].

As to `C[C@@H]1C[C@H](N)CN(c2ccncc2NC(=O)c2c(N)oc3cc(C(F)(F)F)cnc23)C1` [Example 73, 2-Amino-N-{4-[(3S,5R)-3-amino-5-methyl-piperidin-1-yl]pyridin-3-yl}-6-(trifluoromethyl)-furo[3,2-b]pyridine-3-carboxamide], the IC50 was not above 10 nM in experiment [1], not above 10 nM in experiment [2] and 10 to 100 nM in experiment [3].

As for `CCCc1cnc2c(C(=O)Nc3cnccc3N3C[C@@H](N)[C@H](O)[C@@H](C)C3)c(N)oc2c1` [Example 67, 2-Amino-N-{4-[(3R,4R,5S)-3-amino-4-hydroxy-5-methylpiperidin-1-yl]pyridin-3-yl}-6-propylfuro[3,2-b]pyridine-3-carboxamide], the IC50 in experiment [1], in experiment [2] and in experiment [3] was not above 10 nM each time.

`CC(C)C(=O)Nc1cnc2c(C(=O)Nc3cnccc3N3C[C@@H](N)[C@H](O)[C@@H](C)C3)c(N)sc2c1` [Example 143, 2-Amino-N-(4-((3R,4R,5S)-3-amino-4-hydroxy-5-methylpiperidin-1-yl)pyridin-3-yl)-6-isobutyramidothieno[3,2-b]pyridine-3-carboxamide]: the figures for the IC50 in experiment [1], in experiment [2] and in experiment [3] were not above 10 nM, not above 10 nM and 10 to 100 nM, respectively.

With `Nc1oc2cc(CN3CC(O)C3)cnc2c1C(=O)Nc1cnccc1N1C[C@@H](N)C[C@@H](C(F)(F)F)C1` [Example 101, 2-Amino-N-{4-[(3S,5R)-3-amino-5-(trifluoromethyl)piperidin-1-yl]pyridin-3-yl}-6-[(3-hydroxyazetidin-1-yl)methyl]furo[3,2-b]pyridine-3-carboxamide], the IC50 in experiment [1] was not above 10 nM; in experiment [2], not above 10 nM; in experiment [3] it was 10 to 100 nM.

On to `Nc1oc2cc(CN3CC[C@@H](F)C3)cnc2c1C(=O)Nc1cnccc1N1C[C@@H](N)C[C@@H](C(F)(F)F)C1` [Example 105, 2-Amino-N-{4-[(3S,5R)-3-amino-5-(trifluoromethyl)piperidin-1-yl]pyridin-3-yl}-6-{[(3R)-3-fluoropyrrolidin-1-yl]methyl}furo[3,2-b]pyridine-3-carboxamide], for which the IC50 in experiment [1] was not above 10 nM; in experiment [2], not above 10 nM; in experiment [3], 10 to 100 nM.

As for `CCCc1cnc2c(C(=O)Nc3cnccc3N3C[C@@H](N)C[C@@H](C(F)(F)F)C3)c(N)oc2c1` [Example 69, 2-Amino-N-{4-[(3S,5R)-3-amino-5-(trifluoromethyl)piperidin-1-yl]pyridin-3-yl}-6-propylfuro[3,2-b]pyridine-3-carboxamide], the IC50 in experiment [1], in experiment [2] and in experiment [3] was not above 10 nM each time.

For `Cn1ncc(NC(=O)c2c(N)oc3c(Cl)ccnc23)c1N1CCCC(N)CC1` (stereo not drawn) [Example 58, 2-amino-N-[5-(4-aminoazepan-1-yl)-1-methyl-1H-pyrazol-4-yl]-7-chlorofuro[3,2-b]pyridine-3-carboxamide], the IC50 in experiment [1] was not above 10 nM; in experiment [2] it was not above 10 nM; in experiment [3] it was 100 to 1000 nM.

On to `Nc1sc2cccnc2c1C(=O)Nc1cnccc1N1CCC[C@@H](N)C1` [Example 7, 2-Amino-N-{4-[(3R)-3-aminopiperidin-1-yl]pyridin-3-yl}thieno[3,2-b]pyridine-3-carboxamide], for which the IC50 in experiment [1] is more than 40 nM; in experiment [2], not above 10 nM; in experiment [3], more than 2000 nM.

Consider `Cn1ncc(NC(=O)c2c(N)oc3cc(C4CCOCC4)cnc23)c1N1C[C@@H](N)C[C@@H](C(F)(F)F)C1` [Example 90, 2-Amino-N-{5-[(3S,5R)-3-amino-5-(trifluoromethyl)piperidin-1-yl]-1-methyl-1H-pyrazol-4-yl}-6-(tetrahydro-2H-pyran-4-yl)furo[3,2-b]pyridine-3-carboxamide], for which the IC50 in experiment [1] is not above 10 nM; in experiment [2] it was not above 10 nM; in experiment [3], 10 to 100 nM.

As to `C[C@H]1CN(c2ccncc2NC(=O)c2c(N)oc3cccnc23)C[C@@H](N)[C@@H]1O` [Example 74, 2-Amino-N-{4-[(3R,4R,5S)-3-amino-4-hydroxy-5-methylpiperidin-1-yl]pyridin-3-yl}-furo[3,2-b]pyridine-3-carboxamide], the IC50 was not above 10 nM in experiment [1], not above 10 nM in experiment [2] and 10 to 100 nM in experiment [3].

Take `C[C@H]1CN(c2ccncc2NC(=O)c2c(N)sc3cc(NC(=O)C4CC4)cnc23)C[C@@H](N)[C@@H]1O` [Example 142, 2-Amino-N-(4-((3R,4R,5S)-3-amino-4-hydroxy-5-methylpiperidin-1-yl)pyridin-3-yl)-6-(cyclopropanecarboxamido)thieno[3,2-b]pyridine-3-carboxamide]: the IC50 in experiment [1] is not above 10 nM; in experiment [2] it was not above 10 nM; in experiment [3], 10 to 100 nM.

Regarding `CN1CCN(Cc2cnc3c(C(=O)Nc4cnccc4N4C[C@@H](N)C[C@@H](C(F)(F)F)C4)c(N)oc3c2)CC1` [Example 108, 2-Amino-N-{4-[(3S,5R)-3-amino-5-(trifluoromethyl)piperidin-1-yl]pyridin-3-yl}-6-[(4-methylpiperazin-1-yl)methyl]furo[3,2-b]pyridine-3-carboxamide], the results for the IC50 in experiment [1], in experiment [2] and in experiment [3] were not above 10 nM, not above 10 nM and 10 to 100 nM, respectively.

Regarding `CCCc1cnc2c(C(=O)Nc3cnccc3N3CCC[C@H](N)C3)c(N)oc2c1` [Example 51, 2-amino-N-{4-[(3S)-3-aminopiperidin-1-yl]pyridin-3-yl}-6-(propyl)furo[3,2-b]pyridine-3-carboxamide], the IC50 in experiment [1] is not above 10 nM; in experiment [2], not above 10 nM; in experiment [3] it was 10 to 100 nM.

On to `Cn1ncc(NC(=O)c2c(N)sc3cc(F)cnc23)c1N1CCCC(N)CC1` (stereo not drawn) [Example 37, 2-Amino-N-[5-(4-aminoazepan-1-yl)-1-methyl-1H-pyrazol-4-yl]-6-fluoro-thieno[3,2-b]pyridine-3-carboxamide], for which the values for the IC50 in experiment [1], in experiment [2] and in experiment [3] were not above 10 nM, not above 10 nM and 100 to 1000 nM, respectively.

For `Nc1oc2cc(F)cnc2c1C(=O)Nc1cnccc1N1C[C@@H](N)C[C@@H](C(F)(F)F)C1` [Example 63, 2-amino-N-{4-[(3S,5R)-3-amino-5-(trifluoromethyl)piperidin-1-yl]pyridin-3-yl}-6-fluorofuro[3,2-b]pyridine-3-carboxamide], the IC50 in experiment [1] was not above 10 nM; in experiment [2], not above 10 nM; in experiment [3] it was 10 to 100 nM.

Consider `COc1cnc2c(C(=O)Nc3cnccc3N3CCC[C@H](N)C3)c(N)sc2c1` [Example 12, 2-Amino-N-{4-[(3S)-3-aminopiperidin-1-yl]pyridin-3-yl}-6-methoxythieno[3,2-b]pyridine-3-carboxamide], for which the IC50 in experiment [1] was not above 10 nM; in experiment [2] it was not above 10 nM; in experiment [3] it was 100 to 1000 nM.

Turning to `Nc1oc2cc(C(F)(F)F)cnc2c1C(=O)Nc1cnccc1N1C[C@@H](N)C[C@@H](C(F)(F)F)C1` [Example 61, 2-amino-N-{4-[(3S,5R)-3-amino-5-(trifluoromethyl)piperidin-1-yl]pyridin-3-yl}-6-trifluoromethyl-furo[3,2-b]pyridine-3-carboxamide], the IC50 in experiment [1] was not above 10 nM; in experiment [2] it was not above 10 nM; in experiment [3] it was 10 to 100 nM.

Broadly, the IC50 is the concentration needed to halve the response being measured.
